In ChEMBL document CHEMBL5260834, “Benzomorphan skeleton, a versatile scaffold for different targets: A comprehensive review” (Eur J Med Chem, 2018):

Assays:
[1] = target: T1, Sigma non-opioid intracellular receptor 1 (Homo sapiens, UniProt Q99720); test: Inhibition of sigma 1 receptor (unknown origin)
[2] = target: T2, Sigma non-opioid intracellular receptor 1 (Cavia porcellus, UniProt Q60492); test: Displacement of [3H]-(+)-pentazocine from sigma1 receptor in guinea pig brain membrane assessed as inhibition constant; assay type: cell membranes
[3] = target: T3, Sigma intracellular receptor 2 (Rattus norvegicus, UniProt Q5U3Y7); test: Displacement of [3H]DTG from sigma 2 receptor in rat liver membranes assessed as inhibition constant presence of dextrallorphan; assay type: cell membranes, Membrane
T3 sequence (Q5U3Y7 whole entry): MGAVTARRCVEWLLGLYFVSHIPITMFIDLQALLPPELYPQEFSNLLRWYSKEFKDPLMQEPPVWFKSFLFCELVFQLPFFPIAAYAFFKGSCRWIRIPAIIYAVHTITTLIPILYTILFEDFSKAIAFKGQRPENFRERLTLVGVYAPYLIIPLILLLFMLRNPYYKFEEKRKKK

Mu-type opioid receptor [4] = target: T4, Mu-type opioid receptor (Homo sapiens, UniProt P35372); test: Displacement of [3H]-DAMGO from human MOR receptor assessed as inhibition constant by cheng-prusoff equation assay
[5] = target: T1, Sigma non-opioid intracellular receptor 1; test: Displacement of [3H]-(+)-pentazocine from sigma1 receptor (unknown origin) assessed as inhibition constant
Mu-type opioid receptor [6] = target: T4, Mu-type opioid receptor; test: Displacement of [3H]-Diprenorphine from MOR receptor (unknown origin) assessed as inhibition constant
[7] = target: Delta-type opioid receptor (Homo sapiens, UniProt P41143); test: Displacement of [3H]-Diprenorphine from DOR receptor (unknown origin) assessed as inhibition constant
[8] = target: T5, Kappa-type opioid receptor (Homo sapiens, UniProt P41145); test: Displacement of [3H]-U69593 from KOR receptor (unknown origin) assessed as inhibition constant
[9] = target: T6, Sigma intracellular receptor 2 (Homo sapiens, UniProt Q5BJF2)
Description: Inhibition of sigma 2 receptor (unknown origin)

[10] = target: T6, Sigma intracellular receptor 2; test: Displacement of [3H]DTG from sigma 2 receptor (unknown origin) assessed as inhibition constant incubated for 120 mins in presence of (+)-SKF10047 by radioligand binding assay
[11] = target: T2, Sigma non-opioid intracellular receptor 1; test: Displacement of [3H]-(+)-pentazocine from sigma1 receptor in guinea pig brain membrane assessed as inhibition constant measured for 150 mins in presence of haloperidol; assay type: cell membranes
Mu-type opioid receptor [12] = target: Mu-type opioid receptor (Rattus norvegicus, UniProt P33535); test: Displacement of [ 3H]-naloxone from rat brain membrane mu opioid receptor assessed as inhibition constant by radioligand binding assay; assay type: cell membranes
[13] = target: T2, Sigma non-opioid intracellular receptor 1; test: Displacement of [3H]-(+)-pentazocine from sigma1 receptor in guinea pig brain membrane assessed as inhibition constant measured for 150 mins; assay type: cell membranes
[14] = target: T6, Sigma intracellular receptor 2; test: Displacement of [3H]DTG from sigma 2 receptor (unknown origin) assessed as inhibition constant in presence of haloperidol measured for 120 mins by scintillation counting analysis
[15] = Ratio of Ki for displacement of [3H]DTG from sigma 2 receptor (unknown origin) assessed as inhibition constant in presence of haloperidol to Ki for displacement of [3H]-(+)-pentazocine from sigma1 receptor in guinea pig brain membrane assessed as inhibition constant; assay type: cell membranes
[16] = Ratio of Ki for displacement of [3H]-(+)-pentazocine from sigma1 receptor in guinea pig brain membrane assessed as inhibition constant to Ki for displacement of [3H]-(+)-pentazocine from sigma1 receptor in guinea pig brain membrane assessed as inhibition constant; assay type: cell membranes; set-up: reference not given here
[17] = target: T5, Kappa-type opioid receptor; test: Displacement of [3H]-diprenorphine from KOR receptor (unknown origin) assessed as inhibition constant in presence of D-Ala-N-MePhe-Gly-ol-enkephalin and D-Ala-DLeu-enkephalin
[18] = target: T6, Sigma intracellular receptor 2; test: Displacement of [3H]DTG from sigma 2 receptor (unknown origin) assessed as inhibition constant in presence of (+)-SKF10047 by radioligand binding assay
[19] = target: T3, Sigma intracellular receptor 2; test: Displacement of [3H]DTG from sigma 2 receptor in rat liver membranes assessed as inhibition constant presence of haloperidol by scintillation counting analysis; assay type: cell membranes, Membrane
[20] = Ratio of Ki for displacement of [3H]DTG from sigma 2 receptor in rat liver membranes assessed as inhibition constant presence of haloperidol by scintillation counting analysis to Ki for displacement of [3H]-(+)-pentazocine from sigma 1 receptor in guinea pig brain membrane assessed as inhibition constant in presence of haloperidol; assay type: cell membranes
[21] = Displacement of 3[H]BTX from rat cerebral cortex sodium channel assessed as inhibition constant; assay type: tissue-based
[22] = target: Glutathione hydrolase 1 proenzyme (Homo sapiens, UniProt P19440); test: Inhibition of human GGT1
Mus musculus [23] = test: Anticonvulsant activity in mouse assessed as protection against maximal electroshock seizures […] by maximum electroshock seizure test; assay type: functional
[24] = target: T2, Sigma non-opioid intracellular receptor 1; test: Displacement of [3H]-(+)-pentazocine from sigma1 receptor in guinea pig brain membrane assessed as inhibition constant measured after 120 mins by scintillation counting method; assay type: cell membranes
Mus musculus [25] = test: Anticonvulsant activity in mouse assessed as protection against maximal electroshock seizures at 5 mg/kg, sc by maximum electroshock seizure test; assay type: functional; conditions: read-out: ID50 (the source's name)
[26] = target: Glutamate [NMDA] receptor; test: Antagonist activity at NMDA receptor (unknown origin) assessed as inhibition constant; assay type: protein-complex assay, Homo sapiens
[27] = Toxicity in mouse assessed as induction of lethality; conditions: in vivo
[28] = Half life in mouse; assay type: ADME, organism-based; conditions: in vivo

T6 sequence (Q5BJF2 whole entry): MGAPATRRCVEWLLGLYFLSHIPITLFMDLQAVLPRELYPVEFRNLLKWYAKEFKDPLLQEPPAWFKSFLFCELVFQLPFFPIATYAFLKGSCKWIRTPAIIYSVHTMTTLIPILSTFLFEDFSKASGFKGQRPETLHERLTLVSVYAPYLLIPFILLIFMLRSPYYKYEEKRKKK
Sequence of Delta-type opioid receptor (P41143 whole entry): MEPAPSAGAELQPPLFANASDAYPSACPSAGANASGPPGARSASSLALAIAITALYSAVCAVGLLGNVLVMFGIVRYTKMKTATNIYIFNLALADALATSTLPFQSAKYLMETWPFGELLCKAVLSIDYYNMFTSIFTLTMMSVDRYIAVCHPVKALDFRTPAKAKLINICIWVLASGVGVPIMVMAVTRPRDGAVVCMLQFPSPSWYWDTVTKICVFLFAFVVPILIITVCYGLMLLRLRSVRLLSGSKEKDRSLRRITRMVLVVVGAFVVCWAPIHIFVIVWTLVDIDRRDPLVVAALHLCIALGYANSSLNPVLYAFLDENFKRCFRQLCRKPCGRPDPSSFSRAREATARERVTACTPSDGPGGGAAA
T5 sequence (P41145 whole entry): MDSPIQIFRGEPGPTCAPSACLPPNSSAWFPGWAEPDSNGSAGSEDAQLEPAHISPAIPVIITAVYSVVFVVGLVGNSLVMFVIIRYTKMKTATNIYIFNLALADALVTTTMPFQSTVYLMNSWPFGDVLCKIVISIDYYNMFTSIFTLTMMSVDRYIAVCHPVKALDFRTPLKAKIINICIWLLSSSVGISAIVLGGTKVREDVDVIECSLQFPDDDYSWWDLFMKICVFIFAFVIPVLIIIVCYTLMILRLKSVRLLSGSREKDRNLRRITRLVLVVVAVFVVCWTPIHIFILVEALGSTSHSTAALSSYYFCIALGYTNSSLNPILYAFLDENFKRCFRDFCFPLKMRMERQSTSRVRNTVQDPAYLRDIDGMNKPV
T4 sequence (P35372 whole entry): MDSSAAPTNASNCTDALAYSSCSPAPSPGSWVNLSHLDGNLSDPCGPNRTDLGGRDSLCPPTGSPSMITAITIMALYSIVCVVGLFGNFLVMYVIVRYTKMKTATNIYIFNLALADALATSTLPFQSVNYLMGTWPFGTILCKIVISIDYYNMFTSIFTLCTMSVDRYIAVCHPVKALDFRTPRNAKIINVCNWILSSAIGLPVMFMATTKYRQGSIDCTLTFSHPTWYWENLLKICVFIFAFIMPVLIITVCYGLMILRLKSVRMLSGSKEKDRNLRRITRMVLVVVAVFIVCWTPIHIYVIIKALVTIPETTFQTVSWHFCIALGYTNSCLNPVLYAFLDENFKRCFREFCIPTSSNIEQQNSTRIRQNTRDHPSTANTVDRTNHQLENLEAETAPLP
T2 sequence (Q60492 whole entry): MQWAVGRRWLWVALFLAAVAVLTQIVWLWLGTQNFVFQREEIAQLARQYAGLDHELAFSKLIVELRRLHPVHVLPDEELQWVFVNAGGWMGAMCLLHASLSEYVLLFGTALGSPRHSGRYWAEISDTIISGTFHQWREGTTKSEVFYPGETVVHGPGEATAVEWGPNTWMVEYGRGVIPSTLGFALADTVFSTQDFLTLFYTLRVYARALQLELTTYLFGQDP
T1 sequence (Q99720 whole entry): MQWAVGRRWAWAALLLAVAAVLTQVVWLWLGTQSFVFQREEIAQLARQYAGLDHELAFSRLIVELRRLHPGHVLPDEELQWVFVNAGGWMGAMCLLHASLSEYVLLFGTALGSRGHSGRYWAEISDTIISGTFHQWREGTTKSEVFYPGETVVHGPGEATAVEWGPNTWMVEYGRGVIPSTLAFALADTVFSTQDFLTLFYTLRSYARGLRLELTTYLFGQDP
Sequence of Glutathione hydrolase 1 proenzyme (P19440 1-380 limits assumed): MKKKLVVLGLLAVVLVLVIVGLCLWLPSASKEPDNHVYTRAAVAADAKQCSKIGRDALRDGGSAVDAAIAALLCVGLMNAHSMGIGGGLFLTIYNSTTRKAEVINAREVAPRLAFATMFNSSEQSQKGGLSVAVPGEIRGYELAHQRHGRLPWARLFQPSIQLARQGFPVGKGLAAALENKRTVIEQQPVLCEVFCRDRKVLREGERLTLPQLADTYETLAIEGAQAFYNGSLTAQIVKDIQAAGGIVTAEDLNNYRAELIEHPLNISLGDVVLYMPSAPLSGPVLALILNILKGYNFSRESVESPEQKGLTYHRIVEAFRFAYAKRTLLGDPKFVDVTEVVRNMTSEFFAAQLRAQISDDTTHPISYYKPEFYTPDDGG
Sequence of Glutathione hydrolase 1 proenzyme (P19440 381-569 limits assumed): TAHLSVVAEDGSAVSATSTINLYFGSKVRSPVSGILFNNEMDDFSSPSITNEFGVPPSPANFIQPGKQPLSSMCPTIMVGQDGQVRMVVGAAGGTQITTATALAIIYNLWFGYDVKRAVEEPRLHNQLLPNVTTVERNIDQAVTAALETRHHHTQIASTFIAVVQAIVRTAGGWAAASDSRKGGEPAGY
Sequence of Mu-type opioid receptor (Rattus norvegicus, UniProt P33535) (P33535 whole entry): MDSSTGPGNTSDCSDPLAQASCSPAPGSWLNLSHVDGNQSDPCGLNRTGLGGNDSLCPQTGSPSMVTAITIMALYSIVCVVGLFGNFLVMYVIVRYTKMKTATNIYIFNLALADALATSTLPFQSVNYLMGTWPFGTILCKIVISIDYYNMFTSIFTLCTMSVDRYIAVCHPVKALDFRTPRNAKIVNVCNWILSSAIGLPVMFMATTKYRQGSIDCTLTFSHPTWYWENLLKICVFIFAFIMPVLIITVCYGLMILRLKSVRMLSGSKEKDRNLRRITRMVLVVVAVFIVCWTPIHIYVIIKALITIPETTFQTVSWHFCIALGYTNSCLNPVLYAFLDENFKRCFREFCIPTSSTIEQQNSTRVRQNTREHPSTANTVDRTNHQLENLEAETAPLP

Molecule `C=CCN1CC[C@]2(C)c3cc(O)ccc3C[C@@H]1[C@@H]2C` has a Ki [1] of 3200 nM.
For `C[C@@H]1[C@@H]2Cc3cc(I)c(O)cc3[C@]1(C)CCN2Cc1ccccc1`, the Ki [2] was 231 nM and the Ki [3] was 597 nM.
`C=CCN1CC[C@@]2(C)c3cc(O)ccc3C[C@H]1[C@H]2C` gave a Ki (Mu-type opioid receptor [4]) of over 10000 nM, a Ki [5] of 169 nM and a Ki (Mu-type opioid receptor [6]) of over 1000 nM. It also gave a Ki [7] of over 1000 nM and a Ki [8] of over 1000 nM.
With `CC(C)=CCN1CCN(c2ccc3c(c2)[C@H]2C[C@@H]3CCN2C(=O)OCc2ccccc2)CC1` the Ki [9] was 23 nM.
Molecule `C[C@@H]1[C@@H]2Cc3ccc(O)cc3[C@]1(C)CCN2CCN(C)c1ccccc1` has a Ki [10] of 124 nM, a Ki [11] of 5.6 nM and a Ki (Mu-type opioid receptor [12]) of 28.8 nM.
Work on `C[C@@H]1[C@@H]2Cc3ccc(N(C)C)cc3[C@]1(C)CCN2Cc1ccccc1` yielded a Ki [13] of 1.75 nM, a Ki [14] of 258 nM and a Ratio Ki [15] of 150.
Work on `C[C@@H]1[C@@H]2Cc3ccc(O)cc3[C@]1(C)CCN2CCNc1ccccc1` yielded a Ki [10] of 111 nM, a Ki [11] of 5.9 nM and a Ki (Mu-type opioid receptor [12]) of 79.8 nM.
For `COC(=O)C1(c2ccccc2)CC1CN1CC[C@@]2(C)c3cc(O)ccc3C[C@H]1[C@H]2C` (mixture of isomers), the Ki [5] was 1380 nM, the Ki (Mu-type opioid receptor [6]) was over 1000 nM and the Ki [7] was over 1000 nM. It also gave a Ki [8] of over 1000 nM.
In the case of `C[C@@H]1[C@@H]2Cc3ccc(O)c(Br)c3[C@]1(C)CCN2Cc1ccccc1`, the Ki [2] is reported as 1.75 nM, the Ki [3] is reported as 346 nM and the Ratio Ki [16] is reported as 200.
For `C[C@@H]1[C@@H]2Cc3ccc(N)cc3[C@]1(C)CCN2Cc1ccccc1`, the Ki [13] was 1.47 nM, the Ki [14] was 832 nM and the Ratio Ki [15] was 570.
Work on `C[C@@H]1[C@@H]2Cc3ccccc3[C@]1(C)CCN2CCN(C)c1ccccc1` yielded a Ki [17] of over 10000 nM, a Ki [5] of 91 nM and a Ki [18] of 157 nM.
`CC(C)[C@@H]1[C@@H]2CCN(Cc3ccccc3)[C@@H]1Cc1ccccc12` showed a Ki [11] of 31.7 nM, a Ki [19] of 133 nM and a Ratio Ki [20] of 4.
`CO[C@@H](C)CN1CC[C@@]2(C)c3cccc(O)c3C[C@@H]1C2(C)C` gave a Ki [21] of 789 nM, an IC50 [22] of 39 nM and an ED50 (Mus musculus [23]) of 1 mg/kg.
With `C[C@@H]1[C@@H]2Cc3ccc(O)cc3[C@]1(C)CCN2Cc1ccccc1F` the Ki [24] was 0.97 nM.
`C[C@@H](CN1CC[C@@]2(C)c3cccc(O)c3C[C@@H]1C2(C)C)OCc1ccccc1` [CROBENETINE] showed a Ki [21] of 43 nM, an IC50 [22] of 322 nM and an ED50 (Mus musculus [25]) of 6.1 mg/kg.
For `COC(=O)[C@@]1(c2ccccc2)C[C@H]1CN1CC[C@@]2(C)c3cc(O)ccc3C[C@H]1[C@H]2C`, the Ki [5] was 75 nM, the Ki (Mu-type opioid receptor [6]) was over 1000 nM and the Ki [7] was over 1000 nM. For the same molecule, the Ki [8] was over 1000 nM.
In the case of `CC(C)=CCN1CC[C@@]2(C)c3c(ccc(O)c3Cl)C[C@H]1[C@H]2C`, the Ki [2] is reported as 2.62 nM and the Ki [3] is reported as 4960 nM.
Molecule `C/C=C/CN1CCN(c2ccc3c(c2)[C@H]2C[C@@H]3CCN2C(=O)OCc2ccccc2)CC1` has a Ki [9] of 16 nM.
Molecule `C=CCCCCN1CC[C@]2(C)c3cc(O)ccc3C[C@@H]1[C@@H]2C` has a Ki [1] of 80 nM.
Work on `CO[C@H](C)CN1CC[C@@]2(C)c3ccc(O)cc3C[C@@H]1C2(C)C` yielded a Ki [26] of 4.5 nM, an LD50 [27] of 0.4 mg/kg and a half-life [28] of 4 h.
